Reference: patent EP3134349B1 (priority 2014, dated 2015)
In brackets after ≈: the same amount, converted by molar mass.

Experiment: Water solubility by batch tests at room temperature (saturated solution, headspace GC)
Format: physicochemical
Procedure: In particular, in a vial fully filled with distilled water, a volume of pure compound (alone or mixed) in an amount sufficient for obtaining a well detectable precipitate and thus a saturated solution was injected. In order to quantify the solubilized fraction of the compound, the saturated solution was analyzed through gas chromatography of the headspace.

With `ClC(Cl)C(Cl)Cl` [1,1,2,2-TeCA, 1,1,2,2-Tetrachloroethane] the Experimental solubility (pure compound in distilled water) was 2.99 ± 0.18 gL^-1 and the solubility (thermodynamic from solid, mixture of the two compounds 50% V/V, distilled water, no unit printed in this row (other rows gL^-1), read-out: Mixture 50% V/V (experimental water solubility of the component)) was 1470 ± 90 µg/mL (≈ 8.76 mM).
